59 compounds from patent US7517517B2 (Janssen Pharmaceutica N.V., priority 2002, dated 2009) can be followed below.

In this assay the target is T1, cloned rat mGlu1 receptor (Rattus norvegicus, UniProt P23385).
T1 construct: expressed in transfected cells; host or cells: CHO cells
Nature of the assay: Signal transduction at the cloned rat mGlu1 receptor in CHO cells (glutamate-induced Ca2+ rise, FLIPR). In kind it is cell-based.

The mark [1] stands for this setting: inhibition of glutamate-induced intracellular Ca2+ rise, CHO cells expressing mGlu1 receptor, compounds with pIC50 between 7 and 8.
[2] abbreviates: 50% inhibition of the glutamate-induced intracellular Ca2+ rise, CHO cells, FLIPR.

Molecules are shown by their SMILES.

T1 sequence (P23385 19-1199): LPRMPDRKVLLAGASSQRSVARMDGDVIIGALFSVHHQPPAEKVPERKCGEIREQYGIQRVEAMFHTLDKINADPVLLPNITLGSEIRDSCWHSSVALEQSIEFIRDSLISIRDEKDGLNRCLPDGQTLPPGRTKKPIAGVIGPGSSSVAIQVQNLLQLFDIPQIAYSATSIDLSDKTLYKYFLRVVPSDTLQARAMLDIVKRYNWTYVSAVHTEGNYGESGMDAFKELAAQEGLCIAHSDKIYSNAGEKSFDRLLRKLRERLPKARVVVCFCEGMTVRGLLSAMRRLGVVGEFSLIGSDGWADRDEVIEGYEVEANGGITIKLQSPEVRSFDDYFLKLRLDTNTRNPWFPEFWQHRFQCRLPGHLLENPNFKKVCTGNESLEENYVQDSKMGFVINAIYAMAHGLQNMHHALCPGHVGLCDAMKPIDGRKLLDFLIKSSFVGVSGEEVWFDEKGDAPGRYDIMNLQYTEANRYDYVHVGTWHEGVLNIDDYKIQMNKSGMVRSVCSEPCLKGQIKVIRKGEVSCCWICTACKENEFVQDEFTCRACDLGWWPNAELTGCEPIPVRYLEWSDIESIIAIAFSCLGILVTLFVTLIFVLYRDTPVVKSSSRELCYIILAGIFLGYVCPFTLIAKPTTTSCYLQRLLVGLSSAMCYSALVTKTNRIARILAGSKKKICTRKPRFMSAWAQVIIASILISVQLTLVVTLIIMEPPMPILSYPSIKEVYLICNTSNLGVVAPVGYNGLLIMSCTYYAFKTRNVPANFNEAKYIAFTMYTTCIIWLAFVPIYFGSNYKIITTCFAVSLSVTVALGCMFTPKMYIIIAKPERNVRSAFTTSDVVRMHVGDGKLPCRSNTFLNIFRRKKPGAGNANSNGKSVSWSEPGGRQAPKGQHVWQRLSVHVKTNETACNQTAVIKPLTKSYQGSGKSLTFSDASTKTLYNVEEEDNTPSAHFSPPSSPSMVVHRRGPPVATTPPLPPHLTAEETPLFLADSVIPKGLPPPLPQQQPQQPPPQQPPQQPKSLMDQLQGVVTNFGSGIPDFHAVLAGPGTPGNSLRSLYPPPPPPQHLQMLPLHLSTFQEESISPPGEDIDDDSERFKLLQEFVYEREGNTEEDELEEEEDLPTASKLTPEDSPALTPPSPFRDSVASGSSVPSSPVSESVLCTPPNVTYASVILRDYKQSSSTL

For `CN(C)CC(C(=O)c1ccc2nc3c(cc2c1)CCS3)c1ccccc1` (stereo not drawn) [Compound 442], half-maximal inhibition under setting [1] (IC50) required 93.3 nM.

Turning to `O=C(c1ccc2nc3c(cc2c1)CCS3)C1CC2CCC1C2` (stereo not drawn) [Compound 447], under setting [1], it took 19.1 nM to reach half-maximal inhibition (IC50).

In the case of `CO[C@H]1CC[C@@H](C(=O)c2ccc3nc4c(cc3c2)CCS4)CC1` [Compound 416], the IC50 (as a rule, the concentration that gives 50% inhibition) under setting [2] was 2.59 nM. For the compound `CCCc1cc2cc(C(=O)[C@H]3CC[C@@H](OC)CC3)ccc2nc1Cl` [Compound 291], it took 44.7 nM to reach half-maximal inhibition under setting [1] (IC50).

For `CC1Cc2cc3cc(C(=O)Cc4ccccc4)ccc3nc2O1` (stereo not drawn) [Compound 455], under setting [2], half-maximal inhibition (IC50) required 8.81 nM. Turning to `CCO[C@H]1CC[C@@H](C(=O)c2ccc3nc(C)c(CC)cc3c2)CC1` [Compound 115], the half-inhibitory concentration (IC50) under setting [1] was 22.9 nM. Still for that read-out and setting: to `O=C(c1ccc2nc3c(cc2c1)CCCO3)C1CC=CCC1` (stereo not drawn) [Compound 435] belongs 41.7 nM; to `O=C(c1ccc2nc3c(cc2c1)CCCO3)C1COc2ccccc2O1` (stereo not drawn) [Compound 438], 64.6 nM. Under setting [1], `CCc1cc2cc(C(=O)C3CCC(OC)CC3)ccc2nc1NC(=O)CCCC1CCCCC1` (stereo not drawn) [Compound 346] gave an IC50 of 18.2 nM. For the compound `O=C(Cc1ccc(F)cc1)c1ccc2nc3c(cc2c1)CCCO3` [Compound 475], it took 19.5 nM to reach half-maximal inhibition under setting [1] (IC50).

Under setting [2], `CCc1cc2cc(C(=O)C3CCC(OC)CC3)c(C)cc2nc1C` (stereo not drawn) [Compound 214] gave an IC50 of 5.85 nM. `CCc1cc2cc(C(=O)C3CC=CCC3)ccc2nc1C` (stereo not drawn) [Compound 112] gave an IC50 under setting [1] of 89.1 nM. As to `CCc1cc2cc(C(=O)Cc3ccc(F)c(F)c3)ccc2nc1C` [Compound 277], the IC50 under setting [1] is 36.3 nM. Same read-out and setting: to `O=C(c1ccc2nc3c(cc2c1)CCS3)C1(F)CC2CCC1C2` (stereo not drawn) [Compound 496] belongs 66.1 nM.

Regarding `COC1CCC(C(=O)c2ccc3nc4c(cc3c2)CCO4)CC1` (stereo not drawn) [Compound 429], the IC50 by setting is: under setting [2], 4.17 nM; under setting [1], 43.7 nM. Consider `O=C(c1ccc2nc3c(cc2c1)CCCO3)C1CC2C=CC1C2` (stereo not drawn) [Compound 461], for which inhibition under setting [1] was half-maximal at 22.4 nM (IC50). Still for that read-out and setting: the result for `CCc1cc2cc(C(=O)C3CCC(OC)CC3)ccc2nc1NC(=O)c1ccc(=O)[nH]c1` (stereo not drawn) [Compound 334] reads 11.2 nM; that for `O=C(Cc1ccccc1)c1ccc2nc3c(cc2c1)CCO3` [Compound 463], 10.5 nM; that for `CCc1cc2cc(C(=O)Cc3ccccc3)ccc2nc1Cl` [Compound 117], 44.7 nM.

The compound `CCc1cc2cc(C(=O)C3CCC(OC)CC3)ccc2nc1NC(=O)Nc1ccccc1SC` (stereo not drawn) [Compound 373] had a half-maximal inhibitory concentration (IC50) under setting [1] of 56.2 nM. The same measure, in the same setting: the result for `O=C(c1ccc2nc3c(cc2c1)CCCS3)C1CC2CCC1C2` (stereo not drawn) [Compound 445] reads 23.4 nM. Under setting [2], `CO[C@H]1CC[C@H](C(=O)c2ccc3nc4c(cc3c2)CCS4)CC1` [Compound 418] had a half-inhibitory concentration (IC50) of 9.02 nM. Take `CCCc1cc2cc(C(=O)[C@H]3CC[C@@H](OC)CC3)ccc2nc1OC` [Compound 97]: inhibition under setting [1] was half-maximal at 83.2 nM (IC50). For the compound `COC1CCCC(C(=O)c2ccc3nc4c(cc3c2)CCCO4)C1` (stereo not drawn) [Compound 437], the IC50 under setting [1] was 16.6 nM. `CCc1cc2cc(C(=O)[C@H]3CC[C@@H](OC)CC3)ccc2nc1N(C)C` [Compound 128] gave a half-maximal inhibitory concentration (IC50) under setting [1] of 30.2 nM.

In turn, `CC1(C(=O)c2ccc3nc4c(cc3c2)CCCO4)CC2CCC1C2` (stereo not drawn) [Compound 494] gave a half-maximal inhibitory concentration (IC50) under setting [1] of 29.5 nM.

Turning to `CCc1cc2cc(C(=O)CC3CC4CCC3C4)ccc2nc1C` (stereo not drawn) [Compound 303], half-maximal inhibition under setting [1] (IC50) was put at 60.3 nM. Same read-out and setting: the result for `COc1nc2ccc(C(=O)[C@H]3CC[C@@H](OC)CC3)cc2cc1C` [Compound 98] reads 26.9 nM; that for `O=C(CCc1ccccc1)c1ccc2nc3c(cc2c1)CCCO3` [Compound 434], 83.2 nM. Under setting [2], `O=C(Cc1ccsc1)c1ccc2nc3c(cc2c1)CCCO3` [Compound 465] gave an IC50 of 7.16 nM.

For `O=C(Cc1cccc(F)c1)c1ccc2nc3c(cc2c1)CCCS3` [Compound 484], the IC50 under setting [1] was 28.8 nM. `O=C(CC1CC2CCC1C2)c1ccc2nc3c(cc2c1)CCCO3` (stereo not drawn) [Compound 497] had a 50% inhibitory concentration (IC50) under setting [2] of 9.44 nM. In turn, `CCc1cc2cc(C(=O)C3CCC(OC)CC3)ccc2nc1NC(=O)CCSC` (stereo not drawn) [Compound 338] gave a concentration for half-maximal inhibition (IC50) under setting [1] of 12.3 nM.

Under setting [1], `O=C(Cc1ccc(F)c(F)c1)c1ccc2nc3c(cc2c1)CCCO3` [Compound 474] had an IC50 of 74.1 nM. Compound `CCc1cc2cc(C(=O)C3CCC(OC)CC3)ccc2nc1NC(=O)Nc1ccc(N(C)C)cc1` (stereo not drawn) [Compound 369] gave an IC50 under setting [1] of 39.8 nM. In turn, `CCc1cc2cc(C(=O)C3CCC(OC)CC3)ccc2nc1NC(=O)C1CCCO1` (stereo not drawn) [Compound 356] had a half-maximal inhibitory concentration (IC50) under setting [1] of 38 nM. `O=C(c1ccc2nc3c(cc2c1)CCS3)C1CCCCC1` [Compound 427] showed an IC50 under setting [2] of 7.67 nM. `CCc1cc2cc(C(=O)C3CCCC(OC)C3)ccc2nc1C` (stereo not drawn) [Compound 241] gave an IC50 under setting [1] of 21.4 nM. Turning to `CO[C@H]1CC[C@@H](C(=O)c2ccc3nc(C)c(CN(C)C)cc3c2)CC1` [Compound 287], the IC50 under setting [1] is 49 nM.

In turn, `CCc1cc2cc(C(=O)Cc3cccs3)ccc2nc1C` [Compound 298] showed an IC50 under setting [1] of 33.1 nM. Same read-out and setting: to `CCc1cc2cc(C(=O)[C@H]3CC[C@@H](OC)CC3)ccc2nc1NC(=O)C1CCN(C(C)=O)CC1` [Compound 193] belongs 61.7 nM; to `CCc1cc2cc(C(=O)Cc3ccsc3)ccc2nc1Cl` [Compound 296], 60.3 nM; to `COC1CCCC(C(=O)c2ccc3nc4c(cc3c2)CCCO4)C1` (stereo not drawn) [Compound 440], 11.7 nM. As for `CCc1cc2cc(C(=O)[C@H]3CC[C@@H](OC)CC3)ccc2[nH]c1=S` [Compound 36], under setting [1], the IC50 is 100 nM. As to `CCc1cc2cc(C(=O)Cc3ccccc3)ccc2nc1F` [Compound 527], inhibition under setting [1] was half-maximal at 58.9 nM (IC50).

Regarding `CC1CCC(C(=O)c2ccc3nc4c(cc3c2)CCS4)CC1` (stereo not drawn) [Compound 430], under setting [1], it took 40.7 nM to reach half-maximal inhibition (IC50). `O=C(c1ccc2nc3c(cc2c1)CCCO3)C1CC2CCC1O2` (stereo not drawn) [Compound 457]: the midpoint of inhibition under setting [1], the IC50, lay at 72.4 nM. As to `CCc1cc2cc(C(=O)[C@H]3CC[C@H](OC)CC3)c(C)cc2[nH]c1=O` [Compound 213], under setting [1], the concentration for half-maximal inhibition (IC50) is 20 nM. On the same count and under the same terms, to `CCc1c(C)nc2ccc(C(=O)[C@H]3CC[C@@H](OC)CC3)cc2c1CC` [Compound 108] belongs 56.2 nM; to `CO[C@H]1CC[C@H](C(=O)c2ccc3nc4c(cc3c2)CCCS4)CC1` [Compound 178], 12 nM; to `O=C(CC1(F)CC2CCC1C2)c1ccc2nc3c(cc2c1)CCCO3` (stereo not drawn) [Compound 482], 45.7 nM. `CO[C@H]1CC[C@@H](C(=O)c2ccc3nc(C)ccc3c2)CC1` [Compound 238] showed a 50% inhibitory concentration (IC50) under setting [1] of 16.2 nM. In the case of `COC1CCC(C(=O)c2ccc3nc4c(cc3c2)CCCS4)CC1` (stereo not drawn) [Compound 176], the concentration for half-maximal inhibition (IC50) under setting [2] is 4.68 nM. In the case of `COC1CCC(C(=O)c2ccc3nc4c(cc3c2)CCN4C)CC1` (stereo not drawn) [Compound 423], under setting [1], the IC50 was 12.9 nM. The same measure, in the same setting: the result for `CCc1cc2cc(C(=O)C3CC4CC(O)C3C4)ccc2nc1Cl` (stereo not drawn) [Compound 281] reads 23.4 nM; that for `O=C(Cc1ccccc1)c1ccc2nc3c(cc2c1)CCCCC3` [Compound 454], 35.5 nM. On to `O=C(c1ccc2nc3c(cc2c1)CCCS3)C1COc2ccccc2O1` (stereo not drawn) [Compound 512], for which it took 74.1 nM to reach half-maximal inhibition under setting [1] (IC50). Under setting [1], `CCc1cc2cc(C(=O)Cc3ccccc3OC)ccc2nc1C` [Compound 236] showed an IC50 of 67.6 nM.

Turning to `CCc1cc2cc(C(=O)C3(F)CCC(OC)CC3)ccc2nc1Cl` (single isomer, unassigned) [Compound 220], the half-maximal inhibitory concentration (IC50) under setting [1] was 13.5 nM.
